Source: patent publication US20230097009A1, “USE OF COMPOUND IN PREVENTION AND/OR TREATMENT OF PATHOGEN INFECTION IN ANIMALS” (FELICAMED BIOTECHNOLOGY CO., LTD., priority 2020, published 2023)

Legend:
[1] = tested on: feline infectious peritonitis virus; experiment: Clinical survival of cats with clinically confirmed FIP, treatment group vs control group (Example 2); type: in vivo, cat; settings: 7 treated vs 8 control cats with FIP; GS-441524 pre-treatment 3 days; 2.0 mg/kg SC q24h D1-D14; death or neurological symptoms = clinical death; 14 days
Source text: A total of 15 cats with clinically confirmed FIP were enrolled, with hydrothorax/ascites, positive CT value by PCR, and no neurological symptoms. 8 cats were allocated into the control group, and 7 cats were allocated into the treatment group.
The groups were pre-treated with GS-441524 for 3 days. For the control group, necessary supportive treatment was given on D1—D14.
The occurrence of death or neurological symptoms was judged as clinical death, and the clinical survival curve was plotted after 14 days.
The Log Rank (Mantel-Cox) and Breslow (Generalized Wilcoxon) methods were used for validity test, and both methods indicated a significant difference (P<0.05). The above description is only for the purpose of illustrating the preferred example of the present invention, and is not intended to limit the scope of the present invention. Any modifications, equivalents and the like made without departing from the spirit and principle of the present invention should be included in the protection scope of the present invention.

feline coronavirus = experiment: Treatment of a cat with recurrent wet FIP (Example 1): daily clinical observation, body weight, chest X-ray; type: in vivo; settings: for body weight: 2.5 kg at enrollment (D0)
Method: A female British shorthair cat (Lele) of 2.5 kg, aged 8 month, unneutered. The cat had symptoms of increased body temperature, mental depression, decreased appetite, and increased abdominal girth in January, 2020. After 1 week, the cat was admitted. On January 18, the cat was diagnosed with feline infectious peritonitis (FIP) positive. After being treated with GS-441524 for 3 days, the cat was then administered with furosemide, Synulox®, prednisolone and itraconazole (P.O., q24h, 10 mg/kg) for 1 month. The drugs were discontinued after ascites regressed. Early in April, the disease recurred, showing decreased food intake and listlessness. […] The cat was enrolled on April 8, and was treated with the drug of the present invention at 2.0 mg/kg (SC, q24h) on days 1-14 (D1-14). Proper supportive treatments were given at the same time, including adjuvant treatment such as Moringa (a hepatoprotective drug), Lysinphirst (lysine) and Doctor Dolittle® (lactoferrin).
The pharmaceutically active compound described above is a pure powder have the following structure. The compound was added to a 0.9% normal saline (50 mL of endotoxin-free water and 0.45 g of NaCl), and the mixture was uniformly mixed and filtered through a filter membrane to give a clarified solution. The diluted compound was stored in a plastic-sealed sterile vial, stored in a refrigerator at 4° C., slowly heated to room temperature before injection, and administered using a disposable syringe. The injection ranged across the back, starting from 2 cm posterior to the scapula to the middle of the lumbar spine, half of the distance of the adjacent chest to flank.
The treatment was given by injection in the morning every day. […]
The hydrothorax completely regressed since about 7 days after the treatment. The body weight increased by 9% during and after the treatment.

[2] = D1, cat with FIP, 2.0 mg/kg SC q24h
[3] = D2, cat with FIP, 2.0 mg/kg SC q24h
[4] = D3, cat with FIP, 2.0 mg/kg SC q24h
[5] = D4, cat with FIP, 2.0 mg/kg SC q24h
[6] = D5, cat with FIP, 2.0 mg/kg SC q24h
[7] = D6, cat with FIP, 2.0 mg/kg SC q24h
[8] = D7, cat with FIP, 2.0 mg/kg SC q24h
[9] = D8, cat with FIP, 2.0 mg/kg SC q24h
[10] = D9, cat with FIP, 2.0 mg/kg SC q24h
[11] = D10, cat with FIP, 2.0 mg/kg SC q24h
[12] = D11, cat with FIP, 2.0 mg/kg SC q24h
[13] = D12, cat with FIP, 2.0 mg/kg SC q24h
[14] = D13, cat with FIP, 2.0 mg/kg SC q24h
[15] = D14, cat with FIP, 2.0 mg/kg SC q24h

CN1CCC(c2ncc(-c3cnc(N)c(OCc4cccc(C#CC(C)(C)O)c4)c3)s2)CC1 [the drug of the present invention, 4-(3-(((2-amino-5-(2-(1-methylpiperidin-4-yl)thiazol-5-yl)pyridin-3-yl)oxy)methyl)phenyl)-2-methylbut-3-yn-2-ol]
2.75 kg: body weight (feline coronavirus; [8]) | body weight (feline coronavirus; [15])
remarkable clinical response: clinical response (appetite, mental state, weight) (feline coronavirus; after 2 weeks of treatment, cat with FIP, 2.0 mg/kg SC q24h)
38 °C: Body temperature Afternoon (feline coronavirus; [4]) | Body temperature Afternoon (feline coronavirus; [9])
9%: body weight increase during and after the treatment (feline coronavirus; cat with FIP, 2.0 mg/kg SC q24h D1-14)
about 7 days: time after which the hydrothorax completely regressed (feline coronavirus; cat with wet FIP (chest), 2.0 mg/kg SC q24h, chest X-ray)
38.4 °C: Body temperature Afternoon (feline coronavirus; [12]) | Body temperature Afternoon (feline coronavirus; [15]) | Body temperature Morning (feline coronavirus; [15])
38.5 °C: Body temperature Afternoon (feline coronavirus; [13]) | Body temperature Afternoon (feline coronavirus; [14])
38.6 °C: Body temperature Afternoon (feline coronavirus; [2])
38.1 °C: Body temperature Afternoon (feline coronavirus; [3]) | Body temperature Afternoon (feline coronavirus; [8])
38-38.5 °C: body temperature maintained throughout the treatment (feline coronavirus; cat with FIP, no fever at enrollment, 2.0 mg/kg SC q24h D1-14)
Good - 5: Food intake (feline coronavirus; D3, cat with FIP, 2.0 mg/kg SC q24h, D0 Decreased intake - 3) | Mental state (feline coronavirus; D3, cat with FIP, 2.0 mg/kg SC q24h, D0 Listless - 3)
38.9 °C: Body temperature Morning (feline coronavirus; [14])
Improved - 4: Food intake (feline coronavirus; D2, cat with FIP, 2.0 mg/kg SC q24h, D0 Decreased intake - 3) | Mental state (feline coronavirus; D2, cat with FIP, 2.0 mg/kg SC q24h, D0 Listless - 3)
Normal: Defecation condition (feline coronavirus; [2]) | Respiratory state (feline coronavirus; [2]) | Defecation condition (feline coronavirus; [3]) | Respiratory state (feline coronavirus; [3]) | Defecation condition (feline coronavirus; [4]) | Respiratory state (feline coronavirus; [4]) | Defecation condition (feline coronavirus; [5]) | Respiratory state (feline coronavirus; [5]) | Defecation condition (feline coronavirus; [6]) | Respiratory state (feline coronavirus; [6]) | Defecation condition (feline coronavirus; [7]) | Respiratory state (feline coronavirus; [7]) | Defecation condition (feline coronavirus; [8]) | Respiratory state (feline coronavirus; [8]) | Defecation condition (feline coronavirus; [9]) | Respiratory state (feline coronavirus; [9]) | Defecation condition (feline coronavirus; [10]) | Respiratory state (feline coronavirus; [10]) | Defecation condition (feline coronavirus; [11]) | Respiratory state (feline coronavirus; [11]) | Defecation condition (feline coronavirus; [12]) | Respiratory state (feline coronavirus; [12]) | Defecation condition (feline coronavirus; [13]) | Respiratory state (feline coronavirus; [13]) | Defecation condition (feline coronavirus; [14]) | Respiratory state (feline coronavirus; [14]) | Defecation condition (feline coronavirus; [15]) | Respiratory state (feline coronavirus; [15])
< 0.05: clinical survival vs control group, P (Log Rank (Mantel-Cox) and Breslow (Generalized Wilcoxon)) [1]
Good: Food intake (feline coronavirus; [5]) | Mental state (feline coronavirus; [5]) | Food intake (feline coronavirus; [6]) | Mental state (feline coronavirus; [6]) | Food intake (feline coronavirus; [7]) | Mental state (feline coronavirus; [7]) | Food intake (feline coronavirus; [8]) | Mental state (feline coronavirus; [8]) | Food intake (feline coronavirus; [9]) | Mental state (feline coronavirus; [9]) | Food intake (feline coronavirus; [10]) | Mental state (feline coronavirus; [10]) | Food intake (feline coronavirus; [11]) | Mental state (feline coronavirus; [11]) | Food intake (feline coronavirus; [12]) | Mental state (feline coronavirus; [12]) | Food intake (feline coronavirus; [13]) | Mental state (feline coronavirus; [13]) | Food intake (feline coronavirus; [14]) | Mental state (feline coronavirus; [14]) | Food intake (feline coronavirus; [15]) | Mental state (feline coronavirus; [15])
38.3 °C: Body temperature Afternoon (feline coronavirus; [5]) | Body temperature Afternoon (feline coronavirus; [6]) | Body temperature Afternoon (feline coronavirus; [7]) | Body temperature Afternoon (feline coronavirus; [11])
38.2 °C: Body temperature Afternoon (feline coronavirus; [10])
